ChEMBL document CHEMBL1149872, “Glycosides from the root of Iodes cirrhosa” (2008)

Test system: PC-12
Assay: Neuroprotective activity against rat PC12 cells assessed as glutamate-induced neurotoxicity at 10 uM after 24 hrs by MTT assay
Type: functional

Row | SMILES | Activity
1 | COc1cc([C@H](O)[C@H](CO)O[C@@H]2O[C@H](CO)[C@@H](O)[C@H](O)[C@H]2O)cc(OC)c1O | -28.4%
2 | COc1cc([C@@H](O)[C@H](CO)Oc2ccc(CCCO[C@@H]3O[C@H](CO)[C@@H](O)[C@H](O)[C@H]3O)cc2O)ccc1O | 36.4%
3 | COc1cc([C@@H](O)[C@H](CO)O[C@@H]2O[C@H](CO)[C@@H](O)[C@H](O)[C@H]2O)ccc1O | -46.6%
4 | COc1cc([C@H]2OC[C@H]3[C@@H]2CO[C@@H]3c2cc(OC)c(O[C@@H]3O[C@H](CO)[C@@H](O)[C@H](O)[C@H]3O)c(OC)c2)cc(OC)c1O[C@H]1O[C@@H](CO)[C@H](O)[C@@H](O)[C@@H]1O [LIRIODENDRTACHIOSIDE] | 20.5%
5 | COc1cc([C@H](O)[C@H](CO)O[C@@H]2O[C@H](CO)[C@@H](O)[C@H](O)[C@H]2O)ccc1O | -32.9%
